Measurements: patent US20240254119A1 (THIRD HARMONIC BIO, INC., priority 2022, published 2024)

Legend:
Caco-2 cells = assay: Caco-2 permeability assay; format: in vitro ADME; details: for Caco-2: Papp A-B: Caco-2, apical to basolateral
Protocol: Exemplary compounds were tested for cell permeability in Caco-2, MDCKII-MDR1 and MDCKII-BCRP cell lines with efflux transporter engagement inferred from the efflux ratios determined. Procedures and results are described below. […] This feature of certain compounds is in part due to efflux transporter engagement. See, for instance, exemplary such compounds included in data tables below.
The transport buffer in the study was HBSS with 10.0 mM HEPES at pH 7.40±0.05. Test compound was tested at 2.00 μM bi-directionally in duplicate. Digoxin was tested at 10.0 μM bi-directionally in duplicate, while nadolol and metoprolol were tested at 2.00 μM in A to B direction in duplicate. Final DMSO concentration was adjusted to less than 1%. The plate was incubated for 2 hours in CO2 incubator at 37±1° C., with 5% CO2 at saturated humidity without shaking. And all samples after mixed with acetonitrile containing internal standard were centrifuged at 3200×g for 10 min. For nadolol and metoprolol, 200 μL supernatant solution was diluted with 600 μL ultra-pure water for LC-MS/MS analysis. For digoxin and test compounds, 200 μL supernatant solution was diluted with 200 μL ultra-pure water for LC-MS/MS analysis. Concentrations of test and control compounds in starting solution, donor solution, and receiver solution were quantified by LC-MS/MS methodologies, using peak area ratio of analyte/internal standard.
After transport assay, lucifer yellow rejection assay was applied to determine the Caco-2 cell monolayer integrity.
[…] And permeation of lucifer yellow through the monolayer was measured to evaluate the cellular integrity.
The apparent permeability coefficient Papp (cm/s) was calculated using the equation: Papp=(dCr/dt)×Vr/(A×C0), where dCr/dt is the cumulative concentration of compound in the receiver chamber as a function of time (μM/s); Vr is the solution volume in the receiver chamber (0.075 mL on the apical side, 0.25 mL on the basolateral side); A is the surface area for the transport, i.e. 0.0804 cm^2 for the area of the monolayer; C0 is the initial concentration in the donor chamber (μM).
The efflux ratio was calculated using the equation: Efflux Ratio=Papp (BA)/Papp(AB).
Percent recovery was calculated using the equation: % Solution Recovery=100×[(Vr×Cr)+(Vd×Cd)]/(Vd×C0), where Vd is the volume in the donor chambers (0.075 mL on the apical side, 0.25 mL on the basolateral side); Cd and Cr are the final concentrations of transport compound in donor and receiver chambers, respectively.

[1] = Three time point assay for plasma, brain and testes distribution after oral dosing; format: in vivo, rat; details: for Brain concentration / Kp brain/plasma / Kp testes/plasma / Plasma concentration / Testes concentration: rat, oral dosing
Method in brief: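 Male SD rats received 10 mg/kg by oral gavage; plasma was sampled at one or more of 0.5, 2, 3, 5.3 and 7 h. PBS-perfused brain and testis were homogenized 1:9 in PBS (pH 7.4):MeOH 2:1, and compound levels were quantified by LC-MS/MS against calibration standards.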

| SMILES | Caco-2: Efflux Ratio (Caco-2 cells) | Caco-2: Papp A-B (Caco-2 cells) | Brain concentration ([1]; time point 0.5 h) | Kp brain/plasma ([1]; time point 0.5 h) | Kp testes/plasma ([1]; time point 0.5 h) | Plasma concentration ([1]; time point 0.5 h) | Testes concentration ([1]; time point 0.5 h) | Brain concentration ([1]; time point 2 h) | Kp brain/plasma ([1]; time point 2 h) | Kp testes/plasma ([1]; time point 2 h) | Plasma concentration ([1]; time point 2 h) | Testes concentration ([1]; time point 2 h) | Brain concentration ([1]; time point 7 h) | Kp brain/plasma ([1]; time point 7 h) | Kp testes/plasma ([1]; time point 7 h) | Plasma concentration ([1]; time point 7 h) | Testes concentration ([1]; time point 7 h) | brain penetration as indicated by Kp (Cbrain/Cplasma) ([1]; result in words) |
| --- | --- | --- | --- | --- | --- | --- | --- | --- | --- | --- | --- | --- | --- | --- | --- | --- | --- | --- |
| Cc1ccc(-c2noc([C@H]3C[C@@H]3F)n2)cc1NC(=O)c1cnc2cc(OC(C)C)ccn12 [Compound I-88] | 0.79 | 6.24 10^−6 cm/s | 722 ng/g | 0.27 | 0.19 | 2640 ng/mL | 480 ng/g | 1200 ng/g | 0.14 | 0.16 | 8390 ng/mL | 1330 ng/g | 1250 ng/g | 0.15 | 0.21 | 9200 ng/mL | 1950 ng/g | – |
| Cc1ccc(-c2noc([C@H](C)O)n2)cc1NC(=O)c1cnc2ccccn12 [Compound I-271] | 2.93 | 6.26 10^−6 cm/s | – | – | – | – | – | 325 ng/g | 0.18 | 0.58 | 1760 ng/mL | 1020 ng/g | – | – | – | – | – | – |
| Cc1ccc(-c2noc(C3CCS(=O)(=O)C3)n2)cc1NC(=O)c1cnc2ccccn12 (racemic) [Compound I-389] | 25.4 | 1.25 10^−6 cm/s | – | – | – | – | – | 63 ng/g | 0.03 | 0.91 | 2030 ng/mL | 1830 ng/g | – | – | – | – | – | – |
| Cc1ccc(-c2noc([C@H]3C[C@@H]3F)n2)cc1NC(=O)c1cnc2cc(OC(F)(F)F)ccn12 [Compound I-87] | 0.66 | 7.81 10^−6 cm/s | 248 ng/g | 0.60 | 0.38 | 454 ng/mL | 159 ng/g | 954 ng/g | 0.68 | 0.71 | 1480 ng/mL | 989 ng/g | 1730 ng/g | 0.36 | 0.34 | 4970 ng/mL | 1650 ng/g | – |
| COCCOCc1ccn2c(C(=O)Nc3cc(-c4noc([C@H]5C[C@@H]5F)n4)ccc3C)cnc2c1 [Compound I-84] | 1.8 | 11.8 10^−6 cm/s | – | – | – | – | – | 400 ng/g | 0.07 | 0.11 | 5900 ng/mL | 655 ng/g | – | – | – | – | – | do not significantly penetrate the brain or minimally penetrate the brain |
| Cc1ccc(-c2noc(C3(N)CC4(CC(F)(F)C4)C3)n2)cc1NC(=O)c1cnc2ccccn12 [Compound I-307] | 1.79 | 9.28 10^−6 cm/s | – | – | – | – | – | 82.4 ng/g | 0.21 | 1.19 | 389 ng/mL | 464 ng/g | – | – | – | – | – | – |
